From ChEMBL document CHEMBL5325399, “Pleiotropic effects of a mitochondrion-targeted glutathione reductase inhibitor on restraining tumor cells” (Eur J Med Chem, 2023)
Calls of active or inactive are those of the source. The calls are words filed in the database; no cut-off is given here.

Tests used:
[1] = Drug uptake in human HeLa cells mitochondria measured after 6 hrs; format: ADME
HepG2 [2] = test: Cytotoxicity against human HepG2 cells assessed as reduction in cell viability measured after 48 hrs; format: functional, cell-based; conditions: HepG2, 48 h
HeLa [3] = test: Cytotoxicity against human HeLa cells assessed as reduction in cell viability measured after 48 hrs; format: functional, cell-based
A549 = test: Cytotoxicity against human A549 cells assessed as reduction in cell viability measured after 48 hrs; format: functional, cell-based; conditions: A549, 48 h
HCT-116 = test: Cytotoxicity against human HCT-116 cells assessed as reduction in cell viability measured after 48 hrs; format: functional, cell-based; conditions: HCT-116, 48 h
MCF7 = test: Cytotoxicity against human MCF7 cells assessed as reduction in cell viability measured after 48 hrs; format: functional, cell-based; conditions: MCF7, 48 h
HeLa [4] = test: Induction of ROS production in human HeLa cells by DCFDA staining based fluorescence analysis; format: functional, cell-based
HeLa [5] = test: Induction of mitochondrial morphological changes in human HeLa cells assessed as multilayered vesicles formation at IC50 incubated for 48 hrs by transmission electron microscopy; format: functional, cell-based
HeLa [6] = test: Induction of mitochondrial morphological changes in human HeLa cells assessed as disappearance of cristae and vacuolar mitochondrial formation at 10 uM incubated for 48 hrs by transmission electron microscopy; format: functional, cell-based
HeLa [7] = test: Induction of mitochondrial morphological changes in human HeLa cells assessed as increase in Mitofilin expression at 2 uM by immunofluorescence analysis; format: functional, cell-based
Cell membrane [8] = test: Dissipation of mitochondrial membrane potential in human HeLa cells assessed as increase in green fluorescence intensity at 0.5 to 5 uM measured after 24 hrs by JC-1 staining based fluorescence microscopy; conditions: Mitochondria, dose 0.5-5 µM
Cell membrane [9] = test: Dissipation of mitochondrial membrane potential in human HeLa cells assessed as proportion of cells with high MMP at 0.5 uM measured after 24 hrs by JC-1 staining based flow cytometry (reference value: 96.54%); conditions: Mitochondria
Cell membrane [10] = test: Dissipation of mitochondrial membrane potential in human HeLa cells assessed as proportion of cells with low MMP at 0.5 uM measured after 24 hrs by JC-1 staining based flow cytometry (reference value: 3.01%); conditions: Mitochondria
Cell membrane [11] = test: Dissipation of mitochondrial membrane potential in human HeLa cells assessed as proportion of cells with high MMP at 5 uM measured after 24 hrs by JC-1 staining based flow cytometry (reference value: 96.54%); conditions: Mitochondria
Cell membrane [12] = test: Dissipation of mitochondrial membrane potential in human HeLa cells assessed as proportion of cells with low MMP at 5 uM measured after 24 hrs by JC-1 staining based flow cytometry (reference value: 3.01%); conditions: Mitochondria
HeLa [13] = test: Induction of autophagy in human HeLa cells assessed as autophagosomes vacuole formation; format: functional, cell-based
HeLa [14] = test: Induction of autophagy in human HeLa cells assessed as downregulation of p62 expression incubated for 24 hrs by immunoblotting analysis; format: functional, cell-based; conditions: dose 0.5-10 µM
HeLa [15] = test: Induction of autophagy in human HeLa cells assessed as increase in ratio of lipidated LC3B-II to LC3B-I incubated for 24 hrs by immunoblotting analysis; format: functional, cell-based; conditions: dose 0.5-10 µM
HeLa [16] = test: Induction of mitophagy in human HeLa cells assessed as colocalization of mitochondria and lysosomes by confocal laser scanning microscopy; format: functional, cell-based
HeLa [17] = test: Induction of mitophagy in human HeLa cells assessed as localization of mitochondria in vacuoles at 10 uM incubated for 48 hrs by transmission electron microscopy; format: functional, cell-based
HeLa [18] = test: Inhibition of mitochondrial respiration in human HeLa cells assessed as decrease in oxygen consumption rate at 2 uM incubated for 24 hrs by Seahorse XF-bioenergetic system analysis; format: functional, cell-based
HeLa [19] = test: Inhibition of mitochondrial respiration in human HeLa cells assessed as decrease in basal respiration; format: functional, cell-based
HeLa [20] = test: Inhibition of mitochondrial respiration in human HeLa cells assessed as decrease in ATP production capacity; format: functional, cell-based
HeLa [21] = test: Inhibition of mitochondrial respiration in human HeLa cells assessed as increase in proton leakage; format: functional, cell-based
HepG2 [22] = test: Inhibition of mitochondrial respiration in human HepG2 cells assessed as decrease in oxygen consumption rate by Seahorse XF-bioenergetic system analysis; format: functional, cell-based
HeLa [23] = test: Inhibition of glycolysis in human HeLa cells assessed as decrease in extracellular acidification rate at 2 uM; format: functional, cell-based
HeLa [24] = test: Decrease in reduced glutathione (GSH) levels in human HeLa cells; format: functional, cell-based
HepG2 [25] = test: Inhibition of glycolysis in human HepG2 cels assessed as decrease in extracellular acidification rate; format: functional, cell-based
HeLa [26] = test: Decrease in reduced glutathione (GSH) levels in human HeLa cells at 1 to 5 uM incubated for 6 hrs by Thiol-tracker Violet based confocal imaging analysis; format: functional, cell-based; conditions: dose 1-5 µM
[27] = Increase in oxidized glutathione (GSSG) levels in human HeLa cells relative to control; format: functional
HeLa [28] = test: Increase in oxidized glutathione (GSSG) levels in human HeLa cells assessed as decrease in ratio of intracellular GSH to GSSG at 1 to 20 uM; format: functional, cell-based; conditions: dose 1-20 µM
[29] = target: T1, Glutathione reductase, mitochondrial (Homo sapiens, UniProt P00390); test: Inhibition of glutathione reductase (unknown origin)
T1 sequence (P00390 whole entry): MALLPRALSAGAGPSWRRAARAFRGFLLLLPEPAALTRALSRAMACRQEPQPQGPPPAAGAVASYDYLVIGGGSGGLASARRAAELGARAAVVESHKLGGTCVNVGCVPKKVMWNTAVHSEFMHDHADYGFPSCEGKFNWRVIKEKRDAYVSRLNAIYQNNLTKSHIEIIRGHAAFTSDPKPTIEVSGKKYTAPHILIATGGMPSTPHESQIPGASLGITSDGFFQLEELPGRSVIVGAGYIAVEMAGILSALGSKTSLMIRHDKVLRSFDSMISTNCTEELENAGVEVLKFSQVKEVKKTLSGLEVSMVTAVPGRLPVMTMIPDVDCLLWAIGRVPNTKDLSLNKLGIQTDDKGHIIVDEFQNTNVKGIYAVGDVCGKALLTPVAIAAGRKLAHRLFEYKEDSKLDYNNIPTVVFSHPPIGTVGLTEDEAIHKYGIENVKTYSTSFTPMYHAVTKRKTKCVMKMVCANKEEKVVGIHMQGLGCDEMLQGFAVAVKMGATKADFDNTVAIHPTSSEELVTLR

[30] = target: T2, Glutathione reductase, mitochondrial (Homo sapiens) (UniProt P00390); test: Inhibition of glutathione reductase in human HeLa cells; format: cell-based; conditions: concentration not given here
T2 sequence (whole entry): T1 sequence (P00390 whole entry)

[31] = target: T2, Glutathione reductase, mitochondrial (Homo sapiens); test: Inhibition of glutathione reductase in human HeLa cells mitochondria; conditions: concentration not given here
HeLa [32] = test: Cytotoxicity against GR-knock out human HeLa cells assessed as reduction in cell viability at 10 uM incubated for 48 hrs; format: functional, cell-based
[33] = target: T2, Glutathione reductase, mitochondrial (Homo sapiens); test: Covalent binding affinity to Cys278 residue of glutathione reductase (unknown origin) by mass spectrometry
Cell membrane [34] = test: Dissipation of mitochondrial membrane potential in human HeLa cells assessed as proportion of cells with high MMP measured after 24 hrs by JC-1 staining based flow cytometry (reference value: 96.54%); conditions: Mitochondria
Cell membrane [35] = test: Dissipation of mitochondrial membrane potential in human HeLa cells assessed as proportion of cells with low MMP measured after 24 hrs by JC-1 staining based flow cytometry (reference value: 3.01%); conditions: Mitochondria

`O=C(/C=C/c1cccc([N+](=O)[O-])c1)c1ccc(OCc2cn(CCCC[P+](c3ccccc3)(c3ccccc3)c3ccccc3)nn2)c(F)c1` showed a Drug uptake [1] of 33%, an IC50 (HepG2 [2]) of 4.6 µM and an IC50 (HeLa [3]) of 2.4 µM. It also gave an IC50 (A549) of 10.2 µM, an IC50 (HCT-116) of 8.2 µM and an IC50 (MCF7) of 17.4 µM. The Activity (HeLa [4]) was “Active”, the Activity (HeLa [5]) was “Active” and the Activity (HeLa [6]) was “Active”. The Activity (HeLa [7]) was “Active”, the Activity (Cell membrane [8]) was “Active” and the Activity (Cell membrane [9]) was 49.4%. For the same compound, the Activity (Cell membrane [10]) was 50.1%, the Activity (Cell membrane [11]) was 15.6% and the Activity (Cell membrane [12]) was 80.7%. The Activity (HeLa [13]) was “Active”, the Activity (HeLa [14]) was “Dose-Dependent Effect” and the Activity (HeLa [15]) was “Dose-Dependent Effect”. The Activity (HeLa [16]) was “Active”, the Activity (HeLa [17]) was “Active” and the inhibition (HeLa [18]) was “Active”. The inhibition (HeLa [19]) was “Active”, the inhibition (HeLa [20]) was “Active” and the inhibition (HeLa [21]) was “Active”. The inhibition (HepG2 [22]) was “Active”, the inhibition (HeLa [23]) was “Active” and the inhibition (HeLa [24]) was “inactive”. The inhibition (HepG2 [25]) was “Active”, the inhibition (HeLa [26]) was “inactive” and the “fold change (FC)” value [27] was 2. The Activity (HeLa [28]) was “Active”, the IC50 ([29]; read-out: IC50) was 0.59 µM and the inhibition [30] was 20%. The inhibition [31] was 50%, the Activity (HeLa [32]) was “inactive” and the Activity [33] was “Active”.

`N#CC(C#N)=NNc1cccc(Cl)c1` showed an Activity (Cell membrane [34]) of 1.24% and an Activity (Cell membrane [35]) of 98.8%.

`COc1ccc(C(=O)/C=C/c2cccc([N+](=O)[O-])c2)cc1F` gave a Drug uptake [1] of 12%, an IC50 (HepG2 [2]) greater than 50 µM and an IC50 (HeLa [3]) greater than 50 µM. The IC50 (A549) was greater than 100 µM, the IC50 (HCT-116) was greater than 50 µM and the IC50 (MCF7) was greater than 100 µM. For the same compound, the IC50 [29] was “Not Active” and the Activity [33] was “inactive”.
